Molecular target: T1, Alpha-1B adrenergic receptor (Mesocricetus auratus, UniProt P18841)
T1 sequence (P18841 whole entry): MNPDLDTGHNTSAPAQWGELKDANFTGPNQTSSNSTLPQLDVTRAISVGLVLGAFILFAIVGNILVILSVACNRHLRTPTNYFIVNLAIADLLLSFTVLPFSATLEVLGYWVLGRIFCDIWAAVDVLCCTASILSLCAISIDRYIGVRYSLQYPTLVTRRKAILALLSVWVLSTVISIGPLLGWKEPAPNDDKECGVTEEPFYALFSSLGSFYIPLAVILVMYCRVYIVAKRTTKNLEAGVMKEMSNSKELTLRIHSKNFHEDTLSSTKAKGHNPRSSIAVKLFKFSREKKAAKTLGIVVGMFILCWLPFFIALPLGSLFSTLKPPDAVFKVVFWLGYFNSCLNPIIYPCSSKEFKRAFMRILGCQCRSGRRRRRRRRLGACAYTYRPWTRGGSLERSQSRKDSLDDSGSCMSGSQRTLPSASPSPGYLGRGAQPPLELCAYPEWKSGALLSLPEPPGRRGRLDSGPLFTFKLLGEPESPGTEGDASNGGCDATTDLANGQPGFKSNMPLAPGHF

SMILES	Ki
COc1ccc(OC)c(C(O)C(C)N)c1 (stereo not drawn)	> 10000 nM
CC(C)NCC(O)c1ccc(O)c(O)c1 (stereo not drawn) [Isoproterenol,(+)]	> 10000 nM
NCC(O)c1ccc(O)c(O)c1 (stereo not drawn) [Noradrenaline,(+)]	920 nM
CNCC(O)c1ccc(O)c(O)c1 (stereo not drawn) [EPINEPHRINE]	9400 nM
Cc1ccc(N(CC2=NCCN2)c2cccc(O)c2)cc1 [SMR000059054]	18 nM
COc1ccccc1N1CCN(CCCNc2c(C)c(=O)n(C)c(=O)n2C)CC1 [Urapidil-5-methyl]	180 nM
COC(=O)[C@@H]1[C@H]2C[C@H]3c4[nH]c5ccccc5c4CCN3C[C@@H]2CC[C@@H]1O [yohimbic acid methyl ester]	670 nM
COc1cccc(OC)c1OCCNCC1Oc2ccccc2OC1c1ccccc1 (stereo not drawn) [NSC_185453]	5.2 nM

Reference: BindingDB's records for doi:10.1016/0922-4106(94)90065-5 (National Children's Medical Research Center, 1994)
